Measurements reported in patent US20120122870A1, “Treatment Of Ischemia-Reperfusion Injury” (MUSC FOUNDATION FOR RESEARCH DEVELOPMENT, priority 2009, published 2012).
“Also recorded” adds a separate entry of the source.

Experiments:
[1] = system: mitochondrial depolarization in hepatocytes; test: Intravital multiphoton microscopy of mitochondrial depolarization (Rh123/PI) after hepatic IR; format: in vivo, mice; details: 1 h of ischemia and 2 h of reperfusion
Source text: MPT onset is an important mechanism leading to cell death due to mitochondrial depolarization. […] There are two main advantages of multiphoton microscopy: 1) Red/infrared light penetrates deeper than visible light into solid tissues allowing visualization of tissue planes as deep as 1 mm into thick specimens. […] Therefore, the viability of thick living specimens is maintained much longer with multiphoton microscopy (Lemasters 2000). These advantages make multiphoton microscopy a powerful tool for studying mitochondrial function in live animals.
Following 1 h-ischemia and […], rhodamine-123 (Rh123), a cationic fluorophore that is taken up by polarized mitochondria, and propidium iodine (PI) that labels the nuclei of non-viable cells were infused and intravital multiphoton imaging of livers was performed. […]
Imaging of fluorescent probes Rh123, PI and calcein in vivo was achieved using a Zeiss LSM 510 laser scanning multiphoton microscope system using IR excitation of 800-900 nm from a Coherent Chameleon tunable Ti-Sapphire femtosecond pulsed laser, which excites both red- and green-fluorescing (rhodamine- and fluorescein-like) fluorophores. For calcein fluorescence, excitation of 720-nm was used.

[2] = system: non-heart-beating liver transplantation in Lewis rats; test: Non-heart-beating donor liver transplantation, graft necrosis (H+E); format: in vivo; details: 30-min aorta clamping, 4-hour cold storage; grafts harvested 18 h after implantation
Source text: ABC294640 improves the outcome of non-heart-beating liver transplantation. The severe donor organ shortage could be reduced by the use of marginal livers for transplantation. Currently only livers from brain-dead, heart-beating donors (HBD) are used for transplantation since liver grafts from non-heart-beating donors frequently fail after transplantation. Development of a method to improve survival of grafts from NHBD is critical to expand the usable liver donor pool. Grafts from NHBD experience longer warm ischemia before liver retrieval, which likely upregulates SK to a higher extent compared to those from HBD. Therefore, we performed a pilot study to test if ABC294640 improves the outcome of non-heart-beating liver transplantation. Livers were explanted from Lewis rats after 30-min of aorta clamping to mimic non-heart-beating donation and implanted after 4-hour storage in UW solution at 0-1° C. […] In cold-stored, untransplanted livers from NHBD, although some cell swelling was observed, no necrosis occurred (FIG. 19, upper right). After transplantation of livers from HBD, small focal necrosis occurred (FIG. 19, middle left). […] Necrotic areas in sections were quantified by image analysis using an Image-1/AT image acquisition and analysis system (Universal Imaging Corp., West Chester, Pa.) incorporating an Axioskop 50 microscope (Carl Zeiss, Inc., Thornwood, NY) and a 10× objective lens.

[3] = system: TNFα mRNA; test: TNFα mRNA by quantitative real time PCR after hepatic warm IR; format: in vivo, mice
Protocol: ABC294640 prevents hepatic warm IR-induced tumor necrosis factor-α (TNFα) formation and NF-κB activation. Toxic cytokine formation and inflammatory processes play important roles in IR injury, and S1P is well known to promote inflammation. Accordingly, we investigated whether ABC294640 affects the expression of the pro-inflammatory cytokine TNFα after IR. Livers were harvested at 2 h after reperfusion and TNFα mRNA was detected by quantitative real time PCR. TNFα mRNA increased ˜10-fold after IR (FIG. 15, upper). ABC294640 blunted this increase in TNFα mRNA by ˜50%. NF-κB activation is involved in inflammatory cytokine formation and upregulation of adhesion molecules. After IR, phosphorylation of p65 subunit of NF-κB increased markedly, indicating NF-κB activation. This effect was also blunted by ABC294640 (FIG. 15 lower) which is consistent with our previous studies of NF-κB activation. Quantitative real-time PCR (qPCR): Total RNA in liver homogenates was isolated using a QIAGEN RNeasy kit and quantified using a NanoDrop ND-1000 Spectrophotometer. cDNAs of mRNA of interest were generated using the Bio-Rad iScript cDNA Synthesis kit. qPCR was performed on a BioRAD MyiQ single-color real-time PCR detection system. The primers used for each gene were designed using Primer 3 software. […] Data were analyzed with MyiQ software. […]

`O=C(NCc1ccncc1)C12CC3CC(C1)CC(c1ccc(Cl)cc1)(C3)C2` [ABC294640, 3-(4-chlorophenyl)-N-(pyridin-4-ylmethyl)adamantane-1-carboxamide] was tested, and the “mitochondrial depolarization after hepatic IR (in words)” value [1] was “rare and largely prevented and prevents mitochondrial depolarization”, the “hepatocytes with mitochondrial depolarization” value ([1]; Rh123) was 17% and the “necrotic areas in transplanted livers from non-heart-beating donors” value [2] was “substantially decreased; also recorded: attenuates necrosis”. The “TNFα formation after hepatic IR (in words)” value ([3]; livers harvested 2 h after IR) was “blunts TNFα formation” and the “blunting of the increase in TNFα mRNA” value ([3]; livers harvested 2 h after reperfusion) was ~50%.
